Experimental data: patent US7977322B2 (Vertex Pharmaceuticals Incorporated, priority 2004, dated 2011)

Target: T1, ΔF508-CFTR (Homo sapiens, UniProt P13569, DEL508-508)
T1 construct: expressed in transfected cells
Assay: Membrane potential optical (FRET/VIPR) assay, identification of correction compounds
Assay type: cell-based
Details: Table 3, assay not given; for Emax: read-out: % Activity / % Efficacy (relative efficacy)
Description: I) Membrane Potential Optical Methods for Assaying ΔF508-CFTR Modulation Properties of Compounds
These voltage sensitive assays are based on the change in fluorescence resonant energy transfer (FRET) between the membrane-soluble, voltage-sensitive dye, DiSBAC2(3), and a fluorescent phospholipid, CC2-DMPE, which is attached to the outer leaflet of the plasma membrane and acts as a FRET donor. Changes in membrane potential (Vm) cause the negatively charged DiSBAC2(3) to redistribute across the plasma membrane and the amount of energy transfer from CC2-DMPE changes accordingly. The changes in fluorescence emission were monitored using VIPR™ II, which is an integrated liquid handler and fluorescent detector designed to conduct cell-based screens in 96- or 384-well microtiter plates.
Identification of Correction Compounds
To identify small molecules that correct the trafficking defect associated with ΔF508-CFTR; a single-addition HTS assay format was developed. The cells were incubated in serum-free medium for 16 hrs at 37° C. in the presence or absence (negative control) of test compound. As a positive control, cells plated in 384-well plates were incubated for 16 hrs at 27° C. to “temperature-correct” ΔF508-CFTR. The cells were subsequently rinsed 3× with Krebs Ringers solution and loaded with the voltage-sensitive dyes. To activate ΔF508-CFTR, 10 μM forskolin and the CFTR potentiator, genistein (20 μM), were added along with Cl^− free medium to each well. The addition of Cl^− free medium promoted Cl^− efflux in response to ΔF508-CFTR activation and the resulting membrane depolarization was optically monitored using the FRET-based voltage-sensor dyes.
• Bath Solution #1: (in mM) NaCl 160, KCl 4.5, CaCl2 2, MgCl2 1, HEPES 10, pH 7.4 with NaOH. • Chloride-free bath solution: Chloride salts in Bath Solution #1 are substituted with gluconate salts. • CC2-DMPE: Prepared as a 10 mM stock solution in DMSO and stored at −20° C. • DiSBAC2(3): Prepared as a 10 mM stock in DMSO and stored at −20° C.
NIH3T3 mouse fibroblasts stably expressing ΔF508-CFTR are used for optical measurements of membrane potential. The cells are maintained at 37° C. in 5% CO2 and 90% humidity in Dulbecco's modified Eagle's medium supplemented with 2 mM glutamine, 10% fetal bovine serum, 1×NEAA, β-ME, 1×pen/strep, and 25 mM HEPES in 175 cm^2 culture flasks. For all optical assays, the cells were seeded at 30,000/well in 384-well matrigel-coated plates and cultured for 2 hrs at 37° C. before culturing at 27° C. for 24 hrs. for the potentiator assay.

T1 sequence (P13569 with tags, fused parts or gaps DEL508-508): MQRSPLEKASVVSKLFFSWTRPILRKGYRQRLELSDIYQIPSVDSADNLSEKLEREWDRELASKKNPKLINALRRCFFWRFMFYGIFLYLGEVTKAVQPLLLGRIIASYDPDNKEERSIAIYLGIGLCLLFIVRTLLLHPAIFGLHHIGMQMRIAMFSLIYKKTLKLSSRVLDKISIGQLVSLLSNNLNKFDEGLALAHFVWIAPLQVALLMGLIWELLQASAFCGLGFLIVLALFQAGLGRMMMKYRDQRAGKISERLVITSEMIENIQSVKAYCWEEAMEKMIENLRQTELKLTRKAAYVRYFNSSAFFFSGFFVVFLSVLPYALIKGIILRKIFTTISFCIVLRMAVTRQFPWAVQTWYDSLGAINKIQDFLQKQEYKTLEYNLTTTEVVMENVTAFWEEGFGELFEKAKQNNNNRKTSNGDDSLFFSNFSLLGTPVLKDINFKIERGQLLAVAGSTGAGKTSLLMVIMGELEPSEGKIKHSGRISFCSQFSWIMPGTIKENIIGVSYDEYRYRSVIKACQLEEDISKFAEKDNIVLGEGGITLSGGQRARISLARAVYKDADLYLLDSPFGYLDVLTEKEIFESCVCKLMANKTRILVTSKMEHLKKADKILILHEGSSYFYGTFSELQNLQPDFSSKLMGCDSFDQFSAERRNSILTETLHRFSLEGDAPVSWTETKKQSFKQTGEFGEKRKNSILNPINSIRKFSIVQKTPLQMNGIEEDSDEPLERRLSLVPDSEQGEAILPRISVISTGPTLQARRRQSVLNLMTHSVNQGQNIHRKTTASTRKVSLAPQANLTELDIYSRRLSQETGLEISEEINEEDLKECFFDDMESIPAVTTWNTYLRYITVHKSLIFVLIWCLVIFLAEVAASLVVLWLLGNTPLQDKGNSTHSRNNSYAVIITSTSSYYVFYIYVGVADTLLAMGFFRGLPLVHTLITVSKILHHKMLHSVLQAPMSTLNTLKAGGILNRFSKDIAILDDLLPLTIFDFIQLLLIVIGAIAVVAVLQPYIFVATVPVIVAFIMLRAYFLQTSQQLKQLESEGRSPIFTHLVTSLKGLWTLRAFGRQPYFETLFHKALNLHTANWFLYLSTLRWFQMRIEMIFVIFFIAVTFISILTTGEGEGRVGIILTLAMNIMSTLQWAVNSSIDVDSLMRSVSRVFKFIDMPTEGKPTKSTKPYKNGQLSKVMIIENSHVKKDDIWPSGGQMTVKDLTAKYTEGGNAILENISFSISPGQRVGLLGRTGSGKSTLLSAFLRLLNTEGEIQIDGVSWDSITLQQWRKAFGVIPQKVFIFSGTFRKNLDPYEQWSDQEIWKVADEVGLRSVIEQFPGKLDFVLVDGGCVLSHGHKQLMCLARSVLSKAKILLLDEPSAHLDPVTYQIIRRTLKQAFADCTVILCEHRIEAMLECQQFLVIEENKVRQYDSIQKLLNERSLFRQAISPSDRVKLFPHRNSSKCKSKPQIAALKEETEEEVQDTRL

Row | SMILES | EC50 [µM] | Emax [%] | % Activity / % Efficacy (relative efficacy)
1 | O=C(Nc1ncc(CN2CC[C@@H](O)C2)s1)C1(c2ccc3c(c2)OCO3)CC1 [Example 319] | 10 to 25 | 25 to 100 | –
2 | COc1ccc(C2(C(=O)Nc3ncc(Cc4cccnc4OC)s3)CC2)cc1 [Example 176] | < 10 | – | +++ (“+++” means>100%)
3 | CCOC(=O)c1sc(NC(=O)C2(c3ccc4c(c3)OCO4)CC2)nc1C(C)C [Example 109] | < 10 | – | +++ (“+++” means>100%)
4 | COc1ccc(C2(C(=O)Nc3ncc(Cc4ccccc4C)s3)CC2)cc1 [Example 280] | < 10 | – | +++ (“+++” means>100%)
5 | COc1ccc(CC2(C(=O)Nc3ncc(Cc4ccccc4Cl)s3)CC2)cc1 [Example 201] | < 10 | – | ++ (“++” means between 25% to 100%)
6 | COc1ccc(C2(C(=O)Nc3ncc(Cc4ccccc4OC)o3)CC2)cc1 [Example 156] | < 10 | > 100 | –
7 | COc1ccc(C2(C(=O)Nc3nc(-c4ccc(Cl)c(Cl)c4)cs3)CC2)cc1 [Example 124] | 25 to 60 | – | ++ (“++” means between 25% to 100%)
8 | COc1ccccc1C1(C(=O)Nc2ncc(Cc3ccccc3C#N)s2)CC1 [Example 68] | < 10 | 25 to 100 | –
9 | COc1ccc(C2(C(=O)Nc3ncc(Sc4ccc(N)cc4)s3)CC2)cc1 [Example 96] | < 10 | – | ++ (“++” means between 25% to 100%)
10 | O=C(Nc1ncc(C(OCC2CCOC2)c2ccccc2Cl)s1)C1(c2ccc3c(c2)OCO3)CC1 (stereo not shown) [Example 258] | < 10 | > 100 | –
11 | COc1ccc(C2(C(=O)Nc3ncc(Cc4ccccc4C(N)=O)s3)CC2)cc1 [Example 76] | < 10 | – | +++ (“+++” means>100%)
12 | COc1ccc(C2(C(=O)Nc3ncc(Cc4cc(F)ccc4OC)s3)CC2)cc1 [Example 179] | < 10 | – | +++ (“+++” means>100%)
13 | O=C(Nc1ncc(Cc2ccccc2Cl)s1)C1(c2ccc(-n3cncn3)cc2)CC1 [Example 307] | < 10 | > 100 | –
14 | COc1ccccc1Cc1cnc(NC(=O)C2(c3ccc(Cl)cc3)CC2)s1 [Example 32] | < 10 | > 100 | –
15 | Cc1ccc(-c2csc(NC(=O)C3(c4ccc5c(c4)OCO5)CC3)n2)c(C)c1 [Example 127] | < 10 | – | +++ (“+++” means>100%)
16 | O=C(Nc1ncc(Cc2ccccc2Cl)s1)C1(c2ccc(F)cc2)CCCC1 [Example 26] | < 10 | > 100 | –
17 | O=C1CC[C@@H](CO[C@H](c2cnc(NC(=O)C3(c4ccc5c(c4)OCO5)CC3)s2)c2ccccc2Cl)N1 [Example 256] | < 10 | > 100 | –
18 | Cc1ccccc1Cc1cnc(NC(=O)C2(c3ccc4c(c3)OCO4)CC2)s1 [Example 281] | < 10 | – | +++ (“+++” means>100%)
19 | N#Cc1ccccc1Cc1cnc(NC(=O)C2(c3ccc4c(c3)OCO4)CC2)s1 [Example 62] | 10 to 25 | – | ++ (“++” means between 25% to 100%)
20 | COc1ccc(C2(C(=O)Nc3ncc(Cc4cnccc4OC)s3)CC2)cc1 [Example 242] | < 10 | – | +++ (“+++” means>100%)
21 | COc1ccc(C2(C(=O)Nc3ncc(CCc4ccccc4OC)s3)CC2)cc1 [Example 194] | < 10 | – | ++ (“++” means between 25% to 100%)
22 | CSc1ccc(C2(C(=O)Nc3ncc(Cc4ccccc4Cl)s3)CC2)cc1 [Example 175] | < 10 | – | +++ (“+++” means>100%)
23 | COc1ccccc1Cc1cnc(NC(=O)C2(c3ccc(SC)cc3)CC2)s1 [Example 173] | < 10 | – | +++ (“+++” means>100%)
24 | O=C(Nc1ncc(Oc2ccccc2Cl)s1)C1(c2ccc3c(c2)OCO3)CC1 [Example 93] | < 10 | – | +++ (“+++” means>100%)

Next, values leading:

Row | EC50 [µM] | Emax [%] | % Activity / % Efficacy (relative efficacy) | SMILES
25 | 10 to 25 | > 100 | – | COc1ccccc1C(c1cnc(NC(=O)C2(c3ccc4c(c3)OCO4)CC2)s1)N(C)C (stereo not shown) [Example 364]
26 | < 10 | > 100 | – | CCCC[C@H](CO)NC(c1cnc(NC(=O)C2(c3ccc4c(c3)OCO4)CC2)s1)c1ccccc1Cl (stereo partly shown) [Example 497]
27 | < 10 | > 100 | – | CC1(C)CC(NC(c2cnc(NC(=O)C3(c4ccc5c(c4)OCO5)CC3)s2)c2ccccc2Cl)CCO1 (stereo not shown) [Example 429]
28 | < 10 | 25 to 100 | – | CCOc1ccccc1C(c1cnc(NC(=O)C2(c3ccc4c(c3)OCO4)CC2)s1)N1CCCC1 (stereo not shown) [Example 463]
29 | < 10 | – | – | C[C@@H](CO)NC(c1cnc(NC(=O)C2(c3ccc4c(c3)OCO4)CC2)s1)c1ccccc1Cl (stereo partly shown) [Example 437]
30 | 10 to 25 | > 100 | – | CC(C)(C)C(c1cnc(NC(=O)C2(c3ccc4c(c3)OCO4)CC2)s1)N1CCCC1 (stereo not shown) [Example 391]
31 | 10 to 25 | 25 to 100 | – | CS(=O)(=O)c1ccc(C(c2cnc(NC(=O)C3(c4ccc5c(c4)OCO5)CC3)s2)N2CCC[C@H]2C(N)=O)cc1 (stereo partly shown) [Example 377]
32 | < 10 | > 100 | – | CS(=O)(=O)c1ccc(C(c2cnc(NC(=O)C3(c4ccc5c(c4)OCO5)CC3)s2)N2CCCC2)cc1 (stereo not shown) [Example 385]
33 | < 10 | 25 to 100 | – | O=C(Nc1ncc(C(NCCCn2ccnc2)c2ccccc2Cl)s1)C1(c2ccc3c(c2)OCO3)CC1 (stereo not shown) [Example 408]
34 | < 10 | > 100 | – | CCN(CC)C(c1ccccc1)c1cnc(NC(=O)C2(c3ccc4c(c3)OCO4)CC2)s1 (stereo not shown) [Example 372]
35 | – | > 100 | – | CC(C)CC(CO)NC(c1cnc(NC(=O)C2(c3ccc4c(c3)OCO4)CC2)s1)c1cccc2c1OC(F)(F)O2 (stereo not shown) [Example 498]
36 | 10 to 25 | > 100 | – | CCC(c1cnc(NC(=O)C2(c3ccc4c(c3)OCO4)CC2)s1)N1CC[C@@H](O)C1 (stereo partly shown) [Example 402]
37 | < 10 | > 100 | – | O=C(Nc1ncc(C(NCC2CCCCC2)c2ccccc2Cl)s1)C1(c2ccc3c(c2)OCO3)CC1 (stereo not shown) [Example 409]
38 | 10 to 25 | > 100 | – | COC[C@@H]1CCCN1C(c1ccccc1)c1cnc(NC(=O)C2(c3ccc4c(c3)OCO4)CC2)s1 (stereo partly shown) [Example 347]
39 | 10 to 25 | > 100 | – | CCN(CC)C(c1cnc(NC(=O)C2(c3ccc4c(c3)OCO4)CC2)s1)C(C)(C)C (stereo not shown) [Example 393]
40 | < 10 | > 100 | – | O=C(Nc1ncc(C(Cc2ccccc2Cl)N2CCC(O)CC2)s1)C1(c2ccc3c(c2)OCO3)CC1 (stereo not shown) [Example 460]
41 | < 10 | > 100 | – | CC(=O)NCCNC(c1cnc(NC(=O)C2(c3ccc4c(c3)OCO4)CC2)s1)c1ccccc1Cl (stereo not shown) [Example 436]
42 | < 10 | > 100 | – | COc1ccc(C(c2cnc(NC(=O)C3(c4ccc5c(c4)OCO5)CC3)s2)N2CCCCC2)cc1 (stereo not shown) [Example 361]
43 | 10 to 25 | 25 to 100 | – | COC[C@@H]1CCCN1C(c1ccc(S(C)(=O)=O)cc1)c1cnc(NC(=O)C2(c3ccc4c(c3)OCO4)CC2)s1 (stereo partly shown) [Example 379]
44 | < 10 | 25 to 100 | – | O=C(Nc1ncc(C(c2cccc3c2OC(F)(F)O3)N2CCCC2)s1)C1(c2ccc3c(c2)OCO3)CC1 (stereo not shown) [Example 494]
45 | < 10 | > 100 | – | NC(=O)C1CCCN1C(Cc1ccccc1Cl)c1cnc(NC(=O)C2(c3ccc4c(c3)OCO4)CC2)s1 (stereo not shown) [Example 458]
46 | < 10 | > 100 | – | COC[C@H]1CCCN1C(Cc1ccccc1Cl)c1cnc(NC(=O)C2(c3ccc4c(c3)OCO4)CC2)s1 (stereo partly shown) [Example 455]
47 | 10 to 25 | > 100 | – | COc1ccc(C(c2cnc(NC(=O)C3(c4ccc5c(c4)OCO5)CC3)s2)N2CCCC2)cc1 (stereo not shown) [Example 362]
48 | < 10 | > 100 | – | Cc1ccccc1C(N[C@@H](CO)CC(C)C)c1cnc(NC(=O)C2(c3ccc4c(c3)OCO4)CC2)s1 (stereo partly shown) [Example 477]
49 | < 10 | > 100 | – | O=C(Nc1ncc(C(NCc2ccco2)c2ccccc2Cl)s1)C1(c2ccc3c(c2)OCO3)CC1 (stereo not shown) [Example 412]
50 | < 10 | > 100 | – | Cc1cccc(C2(C(=O)Nc3ncc(C(c4ccccc4Cl)N4CC[C@@H](O)C4)s3)CC2)c1 (stereo partly shown) [Example 450]
51 | < 10 | > 100 | – | Cc1ccccc1C(N[C@@H](CO)C(C)C)c1cnc(NC(=O)C2(c3ccc4c(c3)OCO4)CC2)s1 (stereo partly shown) [Example 479]
